Assay results taken from patent US12285422B2, “Uses of piperidinyl-indole derivatives” (priority 2017, dated 2025).

Key:
[1] = test system: human microvascular endothelial cell line (HMEC-1); experiment: C3 deposition on ADP-activated HMEC-1 exposed to STEC-HUS patient serum; type: cell-based; conditions: for reduction of C3 deposition on ADP-activated HMEC-1: STEC-HUS patient serum, 4 hours, p<0.0001
Experimental: As described in Morigi et al., 2011 (Morigi M, Galbusera M, Gastoldi S, Locatelli, M, Buelli, S, Pezzotta A, Pagani C, Noris M, Gobbi M, Stravalaci M, Rottoli D, Tedesco F, Remuzzi G and Joja C: 2011. Alternative pathway activation of complement by Shiga toxin promotes exuberant C3a formation that triggers microvascular thrombosis. J Immunol. 187(1):172-80), human microvascular endothelial cell line of dermal origin (HMEC-1, ATCC CRL-3243) were plated on glass slides and used when confluent. […]. At the end of the incubation step HMEC-1 were treated with fluorochrome-conjugated anti-human C3c. In each experiment, a pool of sera from healthy controls was tested in parallel with patient serum. A confocal inverted laser microscope was used for acquisition of the fluorescent staining on endothelial cell surface.
Fifteen fields per sample were acquired and the area occupied by the fluorescent staining was evaluated by automatic edge detection using built-in specific functions of the software Image J and expressed as pixel2 per field analyzed. The highest and lowest values were discarded and the mean±SE was calculated on the remaining 13 fields.
Results: Serum from patients with acute STEC-HUS induced a massive C3 deposition on ADP-activated endothelial cells in respect to sera from healthy controls (P<0.0001). […].

[2] = test system: passive Heymann nephritis in rats; experiment: Passive Heymann nephritis in rats (model for membranous nephropathy); type: in vivo, rat; conditions: for combined histopathology score: p<0.005; for reduction of proteinuria: twice daily oral gavage, 14 days post transfer, p<0.0001; for proteinuria: 60 mg/kg twice daily oral gavage starting 6 days post serum transfer
Description: 4. FB Inhibitor Prevents the Development and Progression of Passive Heymann Nephritis in Rats
Passive Heymann nephritis in the rat is the most common animal model for membranous nephropathy (see Jefferson J A, Pippin J W and Shankland S J 2010. Experimental Models of membranous nephropathy. Drug Discov Today Dis Models. 7(1-2):27-33). It is induced by the transfer of a polyclonal serum derived from rabbits immunized with rat megalin and manifests inflammatory changes in the kidney that are highly reminiscent with the human disease. Significant proteinuria is observed 4 days after the antibody transfer and increases until 2 weeks post transfer.

Compound: CCO[C@H]1CCN(Cc2c(OC)cc(C)c3[nH]ccc23)[C@H](c2ccc(C(=O)O)cc2)C1 [compound of embodiment 5, 4-((2S,4S)-4-ethoxy-1-((5-methoxy-7-methyl-1H-indol-4-yl)methyl)piperidin-2-yl)benzoic acid]
- reduction of C3 deposition on ADP-activated HMEC-1 ([1]; 1 microM): 73%
- reduction of C3 deposition on ADP-activated HMEC-1 ([1]; 10 microM): 89%
- C3 deposits on endothelial cells versus cells exposed to control sera ([1]; 10 microM, STEC-HUS serum): did not significantly differ
- combined histopathology score ([2]; prophylactic, 20 mg/kg, vehicle 2.2): 0.3
- combined histopathology score ([2]; prophylactic, 60 mg/kg, vehicle 2.2): 0.4
- reduction of proteinuria ([2]; prophylactic, 20 mg/kg/d): 82%
- reduction of proteinuria ([2]; prophylactic, 60 mg/kg/d): 75%
- proteinuria ([2]; therapeutic, day 6 (control 0.79)): 0.74
- proteinuria ([2]; therapeutic, day 14 (control 1.93)): 0.81
- effect on disease progression ([2]; therapeutic, 60 mg/kg twice daily oral gavage starting after manifestation of proteinuria (6 days post serum transfer)): blocked further progression of the disease
- combined histopathology score ([2]; therapeutic, 60 mg/kg twice daily oral gavage starting day 6, vehicle 2.7): 1.1
